The text below walks through data of US8993282B2, “Carotenoid fermentation method” (JX Nippon Oil & Energy Corporation, priority 2008, dated 2015).

This test relates to Paracoccus carotinifaciens strain E-396 (FERM BP-4283). The test can be described thus: Amino acid supplementation (20 amino acids), test tube culture, carotenoid by HPLC and growth by OD610. In kind it is cell-based. The following applies: amino acid at 1.0 g/L; for effect on the production of carotenoid pigments: versus tube with no amino acid; for Astaxanthin / Total carotenoid: culture solution; for Astaxanthin / Total carotenoid / OD610: 28° C. for 4 days; for OD610: microbial cell growth, absorbance at 610 nm. As for the experimental part:
In the examples, carotenoids were quantified by high performance liquid chromatography (HPLC) as follows.
Two columns of Wakosil-II 5 SIL-100 (φ4.6×250 mm) (Wako Pure Chemical Industries, Ltd., Japan) were connected to each other for use as a column. Elution was performed by flowing an n-hexane-tetrahydrofuran-methanol mixed solution (40:20:1), which was a mobile phase, at a flow rate of 1.0 mL/minute at a constant temperature around room temperature. The measurement was performed as follows. Samples were each dissolved in tetrahydrofuran and then diluted 100-fold with the mobile phase. Each dilution was injected in a volume of 20 μL. The column eluate was detected at a wavelength of 470 nm. As a reference for quantification, astaxanthin (SIGMA, Cat. No. A9335) was used. The astaxanthin concentration of the reference solution was determined using the following equation after measuring the absorbance (A) of the reference solution at 477 nm and the area percentage % (B) of the astaxanthin peak at the time of HPLC analysis under the above conditions. Astaxanthin concentration (mg/L)=A/2150×B×100
A medium of the following composition (sucrose 30 g/L, corn steep liquor 30 g/L, potassium dihydrogenphosphate 1.5 g/L, disodium hydrogenphosphate 12-hydrate 3.8 g/L, calcium chloride dihydrate 5.0 g/L, magnesium sulfate 7-hydrate 0.7 g/L, iron sulfate 7-hydrate 0.3 g/L, pH 7.2) was dispensed in 8 ml volumes into cotton-plugged test tubes having an inner diameter of 18 mm and sterilized in an autoclave at 121° C. for 15 minutes to prepare a test tube medium for seed culture.
Next, a medium of the following composition (glucose 30 g/L, filtered corn steep liquor 5 g/L, ammonium sulfate 1.5 g/L, potassium dihydrogenphosphate 1.5 g/L, disodium hydrogenphosphate 12-hydrate 3.8 g/L, calcium chloride dihydrate 5.0 g/L, magnesium sulfate 7-hydrate 0.7 g/L, iron sulfate 7-hydrate 0.6 g/L, ester-based defoaming agent 0.2 g/L) was dispensed in 8 ml volumes into cotton-plugged test tubes having an inner diameter of 18 mm (21 tubes in total).
The mediums in these test tubes were supplemented with 20 amino acids, glycine, alanine, valine, leucine, isoleucine, serine, threonine, aspartic acid, glutamic acid, asparagine, glutamine, lysine, arginine, cysteine, methionine, phenylalanine, tyrosine, tryptophan, histidine and proline, respectively, at 1.0 g/L. One of the tubes was supplemented with no amino acid as a control. Finally, the mediums in the tubes were adjusted to pH 7.1 with aqueous sodium hydroxide or aqueous sulfuric acid and then sterilized in an autoclave at 121° C. for 20 minutes.
Paracoccus carotinifaciens strain E-396 (FERM BP-4283) was inoculated into the test tube medium for seed culture and then cultured with shaking at 28° C. for 2 days at 300 spm. The resulting culture solution was then inoculated in 0.1 ml volumes into the 21 test tube media, respectively, and cultured with shaking at 28° C. for 4 days at 300 spm.
Each culture solution was measured for its carotenoid concentration by HPLC and microbial cell growth was determined by OD610 (absorbance at 610 nm).

Regarding `C[C@H](N)C(=O)O` [Alanine, alanine], the “effect on the production of carotenoid pigments” value (from here on “effect on the production”) is “stimulatory effect”, the Astaxanthin came out at 6.2 mg/L, the Total carotenoid came to 20.3 mg/L and the OD610 worked out at 13.

Regarding `N=C(N)NCCC[C@H](N)C(=O)O` [Arginine, arginine], the “effect on the production” value was “stimulatory effect”, the Astaxanthin was 5.1 mg/L, the Total carotenoid is 11.7 mg/L and the OD610 amounted to 13.

On to `NC(=O)C[C@H](N)C(=O)O` [Asparagine, asparagine], for which the “effect on the production” value is reported as “stimulatory effect”, the Astaxanthin came out at 8.1 mg/L, the Total carotenoid was 24.2 mg/L and the OD610 is listed as 14.

For the compound `N[C@@H](CC(=O)O)C(=O)O` [Aspartic Acid, aspartic acid], the “effect on the production” value is given as “stimulatory effect”, the Astaxanthin was found to be 9.4 mg/L, the Total carotenoid was 27.0 mg/L and the OD610 is 18.

For the compound `N[C@@H](CS)C(=O)O` [Cysteine, cysteine], the “effect on the production” value is on record as “clear inhibitory effect”, the Astaxanthin is reported as 0.7 mg/L, the Total carotenoid stood at 3.2 mg/L and the OD610 worked out at 4.

Consider `NC(=O)CC[C@H](N)C(=O)O` [Glutamine, glutamine], for which the “effect on the production” value is listed as “stimulatory effect”, the Astaxanthin stood at 8.3 mg/L, the Total carotenoid is given as 25.8 mg/L and the OD610 was 17.

Consider `NCC(=O)O` [Glycine, glycine], for which the “effect on the production” value is listed as “stimulatory effect”, the Astaxanthin came to 6.2 mg/L, the Total carotenoid was determined as 19.0 mg/L and the OD610 turned out to be 18.

`N[C@@H](Cc1c[nH]cn1)C(=O)O` [Histidine, histidine] gave an Astaxanthin of 3.3 mg/L, a Total carotenoid of 8.1 mg/L and an OD610 of 8.

As for `CC[C@H](C)[C@H](N)C(=O)O` [Isoleucine, isoleucine], the “effect on the production” value is “clear inhibitory effect”, the Astaxanthin came out at 1.3 mg/L, the Total carotenoid was determined as 4.5 mg/L and the OD610 is on record as 6.

Take `CC(C)C[C@H](N)C(=O)O` [Leucine, leucine]: the “effect on the production” value is given as “stimulatory effect”, the Astaxanthin stood at 4.7 mg/L, the Total carotenoid worked out at 10.1 mg/L and the OD610 is reported as 11.

Consider `NCCCC[C@H](N)C(=O)O` [Lysine, lysine], for which the “effect on the production” value is recorded as “clear inhibitory effect”, the Astaxanthin stood at 1.1 mg/L, the Total carotenoid came out at 4.9 mg/L and the OD610 stood at 11.

On to `CSCC[C@H](N)C(=O)O` [Methionine, methionine], for which the “effect on the production” value was “clear inhibitory effect”, the Astaxanthin amounted to 1.4 mg/L, the Total carotenoid was found to be 5.0 mg/L and the OD610 amounted to 7.

On to `N[C@@H](Cc1ccccc1)C(=O)O` [Phenylalanine, phenylalanine], for which the “effect on the production” value is listed as “stimulatory effect”, the Astaxanthin is recorded as 4.9 mg/L, the Total carotenoid is listed as 10.6 mg/L and the OD610 is 10.

In the case of `O=C(O)[C@@H]1CCCN1` [Proline, proline], the “effect on the production” value is “stimulatory effect”, the Astaxanthin worked out at 5.0 mg/L, the Total carotenoid came out at 10.9 mg/L and the OD610 came out at 13.

For the compound `N[C@@H](CO)C(=O)O` [Serine, serine], the “effect on the production” value is “stimulatory effect”, the Astaxanthin is on record as 6.0 mg/L, the Total carotenoid came to 16.4 mg/L and the OD610 was 13.

With `C[C@@H](O)[C@H](N)C(=O)O` [Threonine, threonine], the “effect on the production” value is “stimulatory effect”, the Astaxanthin was 5.2 mg/L, the Total carotenoid is 12.5 mg/L and the OD610 worked out at 8.

Compound `N[C@@H](Cc1c[nH]c2ccccc12)C(=O)O` [Tryptophan, tryptophan] registered an Astaxanthin of 3.0 mg/L, a Total carotenoid of 7.0 mg/L and an OD610 of 10.

As for `N[C@@H](Cc1ccc(O)cc1)C(=O)O` [Tyrosine, tyrosine], the “effect on the production” value is on record as “stimulatory effect”, the Astaxanthin amounted to 5.0 mg/L, the Total carotenoid is 11.3 mg/L and the OD610 is given as 12.

Regarding `CC(C)[C@H](N)C(=O)O` [Valine, valine], the Astaxanthin worked out at 3.0 mg/L, the Total carotenoid is listed as 9.2 mg/L and the OD610 was determined as 10.
